Test results taken from the NIST ThermoML archive (doi:10.1021/je400243j).
Numbers after ± are expanded uncertainties.

Conditions: 293.15 K, 101.33 kPa, Liquid; for viscosity: Concentric cylinders viscometry; for mass density: Vibrating tube method

Row | viscosity | mass density | SMILES
1 | 1592 ± 210 mPa·s | 1361.1 ± 0.8 kg/m3 | CCCCn1cc[n+](CCCCS(=O)(=O)O)c1.O=S(=O)([O-])O [1-butyl-3-(4-sulfobutyl)-imidazolium hydrogensulfate]
2 | 1427 ± 180 mPa·s | 1464.7 ± 0.8 kg/m3 | C[n+]1ccn(CCCCS(=O)(=O)O)c1.O=S(=O)([O-])O [1-methyl-3-(4-sulfobutyl)-imidazolium hydrogensulfate]
3 | 1000 ± 100 mPa·s | 1346.9 ± 0.8 kg/m3 | CCCCn1cc[n+](CCCS(=O)(=O)O)c1.O=S(=O)([O-])O [1-butyl-3-(3-sulfopropyl)-imidazolium hydrogensulfate]
4 | 1296 ± 150 mPa·s | 1501.7 ± 0.9 kg/m3 | C[n+]1ccn(CCCS(=O)(=O)O)c1.O=S(=O)([O-])O [1-methyl-3-(3-sulfopropyl)-imidazolium hydrogensulfate]
